Measured values from patent US20020025929A1, “METHOD OF BUILDING AND MAINTAINING BONE” (priority 1997, published 2002).
Marks after values point to notes of the source that are not given here.

How the values were obtained:
[1] = system: osteopenic ovariectomized rats; test: Three point bending test of femora mid-shaft; assay type: in vivo, Sprague-Dawley rats; design: I (moment of inertia): unit not given beside the values; conditions: OVX rats; for E (Young's modulus) / Fu (ultimate force) / I (moment of inertia) / t (cortical thickness) / u (toughness) / σu (strength): femora mid-shaft, mean ± SEM; for load to failure (Fu) and toughness of femora mid-shaft (in words): 1a dose-dependent up to 1 mg/kg, EE2 0.1 mg/kg, PTH (1-34) 45 and 90 days, combination
Method: Bone strength was measured for the femoral neck, midshaft, and the L-6 vertebra. Femora were thawed before testing, and bone strength was measured on intact femora using a three point bending test. Load was applied midway between two supports that were 15 mm apart. The femora were positioned so the loading point was 7.5 mm proximal from the distal popliteal space and bending occurred about the medial-lateral axis. Specimens were tested in a saline bath at 37° C. Each specimen was submerged in the saline bath for three minutes before testing to allow equilibration of temperature. Load-displacement curves were recorded at a crosshead speed of 1 mm/sec using a servo-hydraulic materials testing machine (MTS Corp., Minneapolis, Minn.) and an x-y recorder (Hewlett Packard 7090A, Palo Alto, Calif.). The measurements included: cross-sectional moment of inertia (I), cortical thickness (t), ultimate load (Fu), ultimate stress (σu), Young's modulus (E), and toughness (u). These values were calculated as described previously (Turner and Burr 1993; Turner et al. 1996).
In a second study, virgin Sprague-Dawley rats were bilaterally ovariectomized (except for the sham-operated group), the ovariectomized animals randomized, and allowed to lose bone for one month prior to treatment in the manner described above. The animal groups, each containing 7-8 animals, included sham-operated animals (SHAM); bilaterally ovariectomized animals (OVX); bilaterally ovariectomized animals treated with 0.01, 0.3 or 1 mg/kg/day of compound 1a, respectively, for three months; bilaterally ovariectomized animals treated subcutaneously with PTH(1-34) at a dose of 10 μg/kg/day for three months; bilaterally ovariectomized animals treated subcutaneously with PTH(1-34) at a dose of 10 μg/kg/day and orally with compound 1a at a dose of 0.3 mg/kg/day, both compounds administered for three months; bilaterally ovariectomized animals treated subcutaneously with PTH(1-34) at a dose of 10 μg/kg/day for forty-five days followed by gavage administration of vehicle for forty-five days; bilaterally ovariectomized animals treated subcutaneously with PTH(1-34) at a dose of 10 μg/kg/day for forty-five days followed by oral administration of only compound 1a at a dose of 0.3 mg/kg/day for forty-five days; and bilaterally ovariectomized animals treated with 17α-ethynyl estradiol administered orally at a dose of 0.1 mg/kg/day.

ovariectomized rats = test: Uterine wet weight of ovariectomized rats; assay type: in vivo, Sprague-Dawley female rats; conditions: OVX rats; compound 1a 0.003-3 mg/kg; 17α-ethynyl estradiol 0.1 mg/kg
Method: Following treatment with the test compounds, the rats were anesthetized and subjected to cardiac puncture and euthanized by CO2 inhalation. Uteri were removed and wet weight were determined on a Mettler balance to evaluate ovariectomy and efficacy of treatment with estrogen. Blood samples were allowed to clot at 4° C. for 2 hr before centrifugation at 2,000 g for 10 min. Serum were collected and stored at −70° C. before analysis. Serum cholesterol was assayed using a high performance calorimetric assay (Boehringer Mannheim Biochemicals, Indianapolis, Ind.). Tibia and femora were removed, cleaned of soft-tissue, fixed in 50% ethanol/ saline, and stored at 4° C. Vertebra L1-6 were removed and analyzed by QCT, histomorphometry, and biomechanics.
In the first study, six-month old virgin Sprague-Dawley female rats weighing about 300 g each were maintained on a 12 hr light/12 hr dark cycle at 22° C. with ad lib access to food (TD 89222 diet containing 0.5% calcium and 0.4% phosphorus, Teklad, Madison, Wis., USA), Except for sham-operated control animals, bilateral ovariectomies were performed on the test animals. In the case of the sham-operated animals, the surgical ovariectomization technique was followed, but the ovaries were left intact to provide a control for assessing any effect which might be due to the surgical trauma. […]

[2] = continuous treatment (PTH 90 days)
[3] = 3 months: PTH (1-34) 10 μg/kg/day s.c., 1a 0.3 mg/kg/day oral + PTH, EE2 0.1 mg/kg/day oral
[4] = PTH (1-34) 10 μg/kg/day s.c. 45 days, then vehicle or 1a 0.3 mg/kg/day oral 45 days
[5] = Cmpd 1a 0.01 mg/kg/day oral, 3 months
[6] = Cmpd 1a 0.3 mg/kg/day oral, 3 months
[7] = Cmpd 1a 1 mg/kg/day oral, 3 months

PTH: N-terminal 1-34 fragment of human parathyroid hormone, hPTH(1-34, Sequence ID No. 3); PTH/vehicle = 45 days PTH then vehicle
cortical thickness of femora mid-shaft (in words) ([1]; PTH (1-34) discontinued after 45 days or switched to compound 1a): lowered cortical thickness to below Sham
cortical thickness of femora mid-shaft (in words) [1, 2]: increased cortical thickness above OVX
E (Young's modulus) [1, 3]: 9854 ± 597
Fu (ultimate force) [1, 3]: 202 ± 7^o
I (moment of inertia) [1, 3]: 4.86 ± .26
t (cortical thickness) [1, 3]: .739 ± .023^o
u (toughness) [1, 3]: 5.24 ± .52^o
σu (strength) [1, 3]: 234 ± 9^o
E (Young's modulus) [1, 4]: 8516 ± 580
Fu (ultimate force) [1, 4]: 171 ± 4^o
I (moment of inertia) [1, 4]: 4.72 ± .17
t (cortical thickness) [1, 4]: .630 ± .010^s
u (toughness) [1, 4]: 3.81 ± .24^s,o
σu (strength) [1, 4]: 205 ± 6^s,o
load to failure (Fu) and toughness of femora mid-shaft (in words) [1]: improved Fu to above OVX

C#C[C@]1(O)CC[C@H]2[C@@H]3CCc4cc(O)ccc4[C@H]3CC[C@@]21C [EE2, 17α-ethynyl estradiol]
cortical thickness of femora mid-shaft (in words) [1, 2]: intermediate between Sham and OVX
E (Young's modulus) [1, 3]: 10002 ± 844
Fu (ultimate force) [1, 3]: 182 ± 11^o
I (moment of inertia) [1, 3]: 4.42 ± .33
t (cortical thickness) [1, 3]: .686 + .015^o
u (toughness) [1, 3]: 4.62 ± .52^o
σu (strength) [1, 3]: 225 ± 13^o
load to failure (Fu) and toughness of femora mid-shaft (in words) [1]: above OVX and not different from Sham
uterine wet weight (ovariectomized rats): increased uterine weight above OVX to Sham levels

COc1ccc(-c2sc3cc(O)ccc3c2Oc2ccc(OCCN3CCCCC3)cc2)cc1 [Compound 1a, 6-hydroxy-2-(4-methoxyphenyl)-3-[4-(2-piperidin-1-ylethoxy)phenoxy]-benzo[b]thiophene]
cortical thickness of femora mid-shaft (in words) [1, 2]: intermediate between Sham and OVX
E (Young's modulus) [1, 5]: 9081 ± 446
Fu (ultimate force) [1, 5]: 160 ± 5^s
I (moment of inertia) [1, 5]: 4.35 ± .21
t (cortical thickness) [1, 5]: .635 ± .020^s,o
u (toughness) [1, 5]: 3.72 ± .26^s,o
σu (strength) [1, 5]: 199 ± 5^s,o
E (Young's modulus) [1, 6]: 8844 ± 431
Fu (ultimate force) [1, 6]: 164 ± 4^s,o
I (moment of inertia) [1, 6]: 4.05 ± .17^o
t (cortical thickness) [1, 6]: .654 ± .012^s,o
u (toughness) [1, 6]: 4.13 ± .24^o
σu (strength) [1, 6]: 217 ± 5^o
E (Young's modulus) [1, 7]: 10087 ± 520
Fu (ultimate force) [1, 7]: 174 ± 4^o
I (moment of inertia) [1, 7]: 4.17 ± .21
t (cortical thickness) [1, 7]: .671 ± .010^s,o
u (toughness) [1, 7]: 4.52 ± .25^o
σu (strength) [1, 7]: 228 ± 9^o
load to failure (Fu) and toughness of femora mid-shaft (in words) [1]: improved load to failure (Fu) and toughness in a dose-dependent manner to above OVX and not different from Sham at 1 mg/kg
